Reference: patent publication US12398120B2, “Substituted hydantoinamides as ADAMTS7 antagonists” (BAYER AKTIENGESELLSCHAFT, priority 2019, dated 2025)

What follows are molecules tested against ADAMTS4 (Homo sapiens (Human), UniProt O75173) (assay: Selectivity assay for ADAMTS-7 modulators: ADAMTS4 (FRET substrate)). Details: ADAMTS4 (R&D 4307-AD) 50 nM, substrate Dabcyl-EEVKAKVQPY-Glu(Edans)-NH2 1 μM, 120 min, 32° C.
Sequence of ADAMTS4 (O75173 213-685): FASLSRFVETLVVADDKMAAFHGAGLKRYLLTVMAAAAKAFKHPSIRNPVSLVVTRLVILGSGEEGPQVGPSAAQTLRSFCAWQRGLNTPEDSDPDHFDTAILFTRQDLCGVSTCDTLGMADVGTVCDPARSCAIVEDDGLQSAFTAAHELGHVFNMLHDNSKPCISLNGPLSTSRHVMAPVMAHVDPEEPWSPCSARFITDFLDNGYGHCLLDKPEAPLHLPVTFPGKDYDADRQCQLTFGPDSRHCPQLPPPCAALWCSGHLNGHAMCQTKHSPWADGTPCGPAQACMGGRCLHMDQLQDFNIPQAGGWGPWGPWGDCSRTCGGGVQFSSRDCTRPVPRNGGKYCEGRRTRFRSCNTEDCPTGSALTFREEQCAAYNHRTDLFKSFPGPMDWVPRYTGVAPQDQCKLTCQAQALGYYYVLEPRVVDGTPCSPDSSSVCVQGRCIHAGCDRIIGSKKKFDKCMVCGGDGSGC
Format: biochemical
Method in brief: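 Human ADAMTS4 with compound in DMSO, or DMSO control; reaction started by adding FRET substrate in reaction buffer. Fluorescence increase measured at substrate-specific wavelengths. IC50 derived from % inhibition of enzyme activity versus compound concentration.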
For O=C1NC(=O)[C@](CNC(=O)c2ccccc2-c2ccc(C3CC3)cc2)(C2CC2)N1 [Example 105, 4′-Cyclopropyl-N-{[(4R)-4-Cyclopropyl-2,5-Dioxoimidazolidin-4-Yl]Methyl}[Biphenyl]-2-Carboxamide], the IC50 was 4.9 µM. Cc1ncsc1C1(CNC(=O)c2ccccc2-c2ccc(C(F)(F)F)cc2)NC(=O)NC1=O (racemic) [Example 5, Rac-N-{[4-(4-Methyl-1,3-Thiazol-5-Yl)-2,5-Dioxoimidazolidin-4-Yl]Methyl}-4′-(Trifluoromethyl)[Biphenyl]-2-Carboxamide] showed an IC50 of 12 µM. Molecule Cc1ccc(-c2ccccc2C(=O)NC[C@@]2(C3CC3)NC(=O)NC2=O)cc1F [Example 221, N-{[(4R)-4-Cyclopropyl-2,5-Dioxoimidazolidin-4-Yl]Methyl}-3′-Fluoro-4′-Methyl[1,1′-Biphenyl]-2-Carboxamide] has an IC50 of 8.1 µM. With CC(C)c1ccc(-c2ccccc2C(=O)NC[C@@]2(C3CC3)NC(=O)NC2=O)cc1 [Example 118, N-{[(4R)-4-Cyclopropyl-2,5-Dioxoimidazolidin-4-Yl]Methyl}-4′-Isopropyl[Biphenyl]-2-Carboxamide] the IC50 was 7.6 µM. For O=C1NC(=O)C(CNC(=O)c2ccccc2-c2ccc(C(F)(F)F)cc2)(c2cnccn2)N1 (racemic) [Example 30, Rac-N-{[2,5-Dioxo-4-(Pyrazin-2-Yl)Imidazolidin-4-Yl]Methyl}-4′-(Trifluoromethyl)[Biphenyl]-2-Carboxamide], the IC50 was 45 µM. CCC(C)C1(CNC(=O)c2ccccc2-c2ccc(C(F)(F)F)nc2)NC(=O)NC1=O (stereo not shown) [Example 51, Diamix-N-[(4-Sec-Butyl-2,5-Dioxoimidazolidin-4-Yl)Methyl]-2-[6-(Trifluoromethyl)Pyridin-3-Yl]Benzamide] was tested, and the IC50 was 25 µM. Molecule COc1ccc(C(=O)NC[C@@]2(C3CC3)NC(=O)NC2=O)c(-c2ccc(C(F)(F)F)cc2)c1 [Example 107, N-{[(4R)-4-Cyclopropyl-2,5-Dioxoimidazolidin-4-Yl]Methyl}-5-Methoxy-4′-(Trifluoromethyl)[Biphenyl]-2-Carboxamide] has an IC50 of 6.2 µM. Work on CC(C)(c1ccc(-c2ccccc2C(=O)NC[C@@]2(C3CC3)NC(=O)NC2=O)cc1)C(F)(F)F [Example 120, N-{[(4R)-4-Cyclopropyl-2,5-Dioxoimidazolidin-4-Yl]Methyl}-4′-(1,1,1-Trifluoro-2-Methylpropan-2-Yl)[Biphenyl]-2-Carboxamide] yielded an IC50 of 35 µM. Molecule Cn1cncc1C1(CNC(=O)c2ccc(F)cc2-c2ccc(C(F)(F)F)cc2)NC(=O)NC1=O (racemic) [Example 284, Rac-5-Fluoro-N-{[4-(1-Methyl-1H-Imidazol-5-Yl)-2,5-Dioxoimidazolidin-4-Yl]Methyl}-4′-(Trifluoromethyl)[Biphenyl]-2-Carboxamide] has an IC50 of 8.5 µM. O=C1NC(=O)[C@](CNC(=O)c2ccccc2-c2ccc(C(F)(F)F)cc2)(C2CC2)N1 [Example 114, N-{[(4R)-4-Cyclopropyl-2,5-Dioxoimidazolidin-4-Yl]Methyl}-4′-(Trifluoromethyl)[Biphenyl]-2-Carboxamide] showed an IC50 of 10.2 µM. For Cc1ncoc1C1(CNC(=O)c2ccccc2-c2ccc(C(F)(F)F)cc2)NC(=O)NC1=O (racemic) [Example 43, Rac-N-{[4-(4-Methyl-1,3-Oxazol-5-Yl)-2,5-Dioxoimidazolidin-4-Yl]Methyl}-4′-(Trifluoromethyl)[Biphenyl]-2-Carboxamide], the IC50 was 28 µM. For Cn1nccc1C1(CNC(=O)c2c(F)cccc2-c2ccc(C(F)(F)F)cc2)NC(=O)NC1=O (single isomer, unassigned; ent-3) [Example 186, Ent-3-Fluoro-N-{[4-(1-Methyl-1H-Pyrazol-5-Yl)-2,5-Dioxoimidazolidin-4-Yl]Methyl}-4′-(Trifluoromethyl)[Biphenyl]-2-Carboxamide], the IC50 was 24 µM. Cc1ccc(-c2c(C)cccc2C(=O)NCC2(c3nccn3C)NC(=O)NC2=O)cc1 (single isomer, unassigned; ent-4) [Example 134, Ent-4′,6-Dimethyl-N-{[4-(1-Methyl-1H-Imidazol-2-Yl)-2,5-Dioxoimidazoidin-4-Yl]Methyl}[1,1′-Biphenyl]-2-Carboxamide] gave an IC50 of 1.4 µM. CC(F)(F)c1ccc(-c2ccccc2C(=O)NC[C@@]2(C3CC3)NC(=O)NC2=O)cc1 [Example 125, N-{[(4R)-4-Cyclopropyl-2,5-Dioxoimidazolidin-4-Yl]Methyl}-4′-(1,1-Difluoroethyl)[Biphenyl]-2-Carboxamide] showed an IC50 of 8.7 µM. Cc1ccc(-c2ccccc2C(=O)NC[C@@]2(C3CC3)NC(=O)NC2=O)cc1Cl [Example 225, 3′-Chloro-N-{[(4R)-4-Cyclopropyl-2,5-Dioxoimidazolidin-4-Yl]Methyl}-4′-Methyl[1,1′-Biphenyl]-2-Carboxamide] gave an IC50 of 21 µM. With O=C1NC(=O)C(CNC(=O)c2ccccc2-c2ccc(C(F)(F)F)cc2)(c2cncn2CC(F)(F)F)N1 (racemic) [Example 94, Rac-N-({2,5-Dioxo-4-[1-(2,2,2-Trifluoroethyl)-1H-Imidazol-5-Yl]Imidazolidin-4-Yl}Methyl)-4′-(Trifluoromethyl)[Biphenyl]-2-Carboxamide] the IC50 was 5.4 µM. Work on O=C1NC(=O)[C@](CNC(=O)c2ccccc2-c2ccc(C3CCC3)cc2)(C2CC2)N1 [Example 112, 4′-Cyclobutyl-N-{[(4R)-4-Cyclopropyl-2,5-Dioxoimidazolidin-4-Yl]Methyl}[Biphenyl]-2-Carboxamide] yielded an IC50 of 2.2 µM. O=C1NC(=O)[C@](CNC(=O)c2ccccc2-c2ccccc2)(C2CC2)N1 [Example 131, N-{[(4R)-4-Cyclopropyl-2,5-Dioxoimidazolidin-4-Yl]Methyl}[Biphenyl]-2-Carboxamide] showed an IC50 of 8.7 µM. Cc1nn(C)cc1C1(CNC(=O)c2ccccc2-c2ccc(C(F)(F)F)nc2)NC(=O)NC1=O (racemic) [Example 55, Rac-N-{[4-(1,3-Dimethyl-1H-Pyrazol-4-Yl)-2,5-Dioxoimidazolidin-4-Yl]Methyl}-2-[6-(Trifluoromethyl)Pyridin-3-Yl]Benzamide] gave an IC50 of 30 µM. With O=C1NC(=O)[C@](CNC(=O)c2ccccc2-c2ccc(Cl)cc2F)(C2CC2)N1 [Example 54, 4′-Chloro-N-{[(4R)-4-Cyclopropyl-2,5-Dioxoimidazolidin-4-Yl]Methyl}-2′-Fluoro[Biphenyl]-2-Carboxamide] the IC50 was 32 µM. With Cc1ccc(C(=O)NC[C@@]2(C3CC3)NC(=O)NC2=O)c(-c2ccc(C(F)(F)F)cc2)c1C [Example 145, N-{[(4R)-4-Cyclopropyl-2,5-Dioxoimidazolidin-4-Yl]Methyl}-5,6-Dimethyl-4′-(Trifluoromethyl)[1,1′-Biphenyl]-2-Carboxamide] the IC50 was 2.8 µM. O=C1NC(=O)[C@](CNC(=O)c2ccc(F)c(F)c2-c2ccc(C(F)(F)F)cc2)(C2CC2)N1 [Example 23, N-{[(4R)-4-Cyclopropyl-2,5-Dioxoimidazolidin-4-Yl]Methyl}-5,6-Difluoro-4′-(Trifluoromethyl)[Biphenyl]-2-Carboxamide] showed an IC50 of 12.5 µM. Work on Cc1ncsc1C1(CNC(=O)c2ccccc2-c2ccc(C(F)(F)F)nc2)NC(=O)NC1=O (stereo not drawn) [Example 37, Ent-N-{[4-(4-Methyl-1,3-Thiazol-5-Yl)-2,5-Dioxoimidazolidin-4-Yl]Methyl}-2-[6-(Trifluoromethyl)Pyridin-3-Yl]Benzamide] yielded an IC50 of 8.7 µM. Work on Cn1nccc1C1(CNC(=O)c2cc(F)ccc2-c2ccc(Cl)cc2)NC(=O)NC1=O (single isomer, unassigned; ent-4) [Example 187, Ent-4′-Chloro-4-Fluoro-N-{[4-(1-Methyl-1H-Pyrazol-5-Yl)-2,5-Dioxoimidazolidin-4-Yl]Methyl}[Biphenyl]-2-Carboxamide] yielded an IC50 of 3.55 µM. Molecule N#Cc1ccc(-c2ccccc2C(=O)NC[C@@]2(C3CC3)NC(=O)NC2=O)cc1 [Example 223, 4′-Cyano-N-{[(4R)-4-Cyclopropyl-2,5-Dioxoimidazolidin-4-Yl]Methyl}[1,1′-Biphenyl]-2-Carboxamide] has an IC50 of 26 µM. In the case of O=C1NC(=O)[C@](CNC(=O)c2ccc(Cl)cc2-c2ccc(C(F)(F)F)cc2)(C2CC2)N1 [Example 216, 5-Chloro-N-{[(4R)-4-Cyclopropyl-2,5-Dioxoimidazolidin-4-Yl]Methyl}-4′-(Trifluoromethyl)[1,1′-Biphenyl]-2-Carboxamide], the IC50 is reported as 9.1 µM. Work on O=C1NC(=O)[C@](CNC(=O)c2cc(F)ccc2-c2ccc(C3CC3(F)F)cc2)(C2CC2)N1 (stereo partly drawn) [Example 140, N-{[(4R)-4-Cyclopropyl-2,5-Dioxoimidazolidin-4-Yl]Methyl}-4′-(2,2-Difluorocyclopropyl)-4-Fluoro[1,1′-Biphenyl]-2-Carboxamide] yielded an IC50 of 11 µM. In the case of CS(=O)(=O)c1ccc(-c2ccccc2C(=O)NC[C@@]2(C3CC3)NC(=O)NC2=O)cc1 [Example 217, N-{[(4R)-4-Cyclopropyl-2,5-Dioxoimidazolidin-4-Yl]Methyl}-4′-(Methanesulfonyl)[1,1′-Biphenyl]-2-Carboxamide], the IC50 is reported as 16 µM. With O=C1NC(=O)C(CNC(=O)c2ccccc2-c2ccc(C(F)(F)F)nc2)(c2ccccc2)N1 (racemic) [Example 50, Rac-N-[(2,5-Dioxo-4-Phenylimidazolidin-4-Yl)Methyl]-2-[6-(Trifluoromethyl)Pyridin-3-Yl]Benzamide] the IC50 was 43 µM. In the case of Cc1cnoc1C1(CNC(=O)c2ccccc2-c2ccc(C(F)(F)F)nc2)NC(=O)NC1=O (racemic) [Example 77, Rac-N-{[4-(4-Methyl-1,2-Oxazol-5-Yl)-2,5-Dioxoimidazolidin-4-Yl]Methyl}-2-[6-(Trifluoromethyl)Pyridin-3-Yl]Benzamide], the IC50 is reported as 40 µM.

Same assay, conditions: ADAMTS4 (R&D 4307-AD) 50 nM, substrate Dabcyl-[…]-Glu(Edans)-NH2 1 μM, 120 min, 32° C.
Cc1scnc1C1(CNC(=O)c2ccc(F)cc2-c2ccc(C(F)(F)F)cc2)NC(=O)NC1=O (single isomer, unassigned; ent-5) [Example 176, Ent-5-Fluoro-N-{[4-(5-Methyl-1,3-Thiazol-4-Yl)-2,5-Dioxoimidazolidin-4-Yl]Methyl}-4′-(Trifluoromethyl)[Biphenyl]-2-Carboxamide] showed an IC50 of 4.13 µM.
